Source: EP4682141A1, “TRICYCLIC COMPOUND” (ONO Pharmaceutical Co., Ltd., priority 2023, dated 2024)

Tests used:
EP1 = target: T1, EP1 (Homo sapiens, UniProt P34995); experiment: agonist activity on human EP1 receptor (intracellular calcium concentration, EP1-CHO cells); assay type: cell-based
T1 construct: expressed in transfected cells; host or cells: CHO (EP1-CHO)
T1 sequence (P34995 1-402): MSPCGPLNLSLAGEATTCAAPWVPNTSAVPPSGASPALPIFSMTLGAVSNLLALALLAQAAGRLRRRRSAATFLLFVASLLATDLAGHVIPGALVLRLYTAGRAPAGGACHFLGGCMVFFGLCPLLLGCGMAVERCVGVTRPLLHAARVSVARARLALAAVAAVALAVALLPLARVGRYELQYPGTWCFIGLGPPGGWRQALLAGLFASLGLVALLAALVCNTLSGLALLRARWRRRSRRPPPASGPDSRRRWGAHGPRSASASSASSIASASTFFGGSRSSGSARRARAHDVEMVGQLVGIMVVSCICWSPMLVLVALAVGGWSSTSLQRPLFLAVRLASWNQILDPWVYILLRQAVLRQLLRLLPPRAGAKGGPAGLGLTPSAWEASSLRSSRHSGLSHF
In short: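 Calcium 6 dye loaded 1 h at room temperature in HBSS with 1% human serum albumin, 2 µmol/L indomethacin, 2.5 mmol/L probenecid, pH 7.4; agonists then added at various concentrations. Intracellular calcium read by fluorescence (ex 480/em 540 nm) in CHO cells expressing human EP1 or Chem1 cells expressing human EP3.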

[1] = test system: rat renal ischemia reperfusion (IR) model; experiment: in vivo drug efficacy in rat renal ischemia reperfusion (IR) model; set-up: species or system Crl : CD (SD) rats; details: subcutaneous osmotic pump
Experimental: The effect of the present compound on renal IR damage was evaluated using male rats.
Male Crl : CD (SD) rats aged 3 or 4 weeks were purchased from Charles River Laboratories Japan, and subjected to experiments. Animals were fed ad libitum with FR-2 (Funabashi Farm) at the time of arrival and with solid feed CE-2 (CLEA Japan) for one week before single kidney removal, and watered ad libitum.
After acclimation breeding, the right kidney was removed about 7 days before renal IR treatment. Specifically, the rats were allowed to inhale isoflurane (Mylan) for anesthesia, and administered buprenorphine (Otsuka Pharmaceutical) as an analgesic at 0.01 mg/kg. The right back was incised, the right kidney was removed, and then the incision was sutured.
Renal IR treatment was performed about 7 days after single kidney removal. Specifically, rats were anesthetized by intraperitoneal administration of sodium pentobarbital (Tokyo Chemical Industry) at a dose of 50 mg/kg, and administered buprenorphine as an analgesic at 0.01 mg/kg. The left abdomen was incised, and the renal artery and vein was sandwiched with a clamp (Natsume Seisakusho) to cause ischemia for 35 minutes. During ischemia, the rats were allowed to lie on a heat-retaining plate set at 38°C, and after 35 minutes, the clamp was removed for reperfusion. After visually confirming that blood flow to the kidney was recovered, the incision was sutured. The sham group was a sham-operated group in which neither ischemia nor reperfusion treatment was performed.
Animals were distributed on the day before renal IR treatment such that differences in the mean of the body weight in each group were not biased, and assigned animal numbers.
The compound of Example 7 (test substance) and physiological saline (Otsuka Pharmaceutical) as a vehicle were subcutaneously administered at 5 mL/kg using an injection needle 5 minutes before renal IR treatment. Saline was administered to the sham group in the same test. The administration dose is described in Table 16.
Specifically, the rats were allowed to inhale isoflurane for anesthesia on the day before renal IR treatment, and administered buprenorphine as an analgesic at 0.01 mg/kg. […] The incision was bonded with Dermabond Advanced (Johnson & Johnson). A pump containing a vehicle was also embedded in the sham group in the same test. The administration dose is described in Table 16.
After renal IR treatment, blood was collected through the tail vein on Day1, Day2, and Day3 to obtain serum. In addition, after renal IR treatment, rats were euthanized by exsanguination through the abdominal aorta under isoflurane anesthesia on Day3.
The respective concentrations of serum creatinine (sCre) and blood urea nitrogen (BUN) were measured using an automatic analyzer 7180 (Hitachi High-Tech).

EP3 receptor = target: T2, EP3 receptor (Homo sapiens, UniProt P43115); experiment: agonist activity on human EP3 receptor (intracellular calcium concentration, EP3-Chem1 cells); assay type: cell-based; details: agonist activity on the EP3 receptor
T2 construct: expressed in transfected cells; host or cells: EP3-Chem1
T2 sequence (P43115 1-390): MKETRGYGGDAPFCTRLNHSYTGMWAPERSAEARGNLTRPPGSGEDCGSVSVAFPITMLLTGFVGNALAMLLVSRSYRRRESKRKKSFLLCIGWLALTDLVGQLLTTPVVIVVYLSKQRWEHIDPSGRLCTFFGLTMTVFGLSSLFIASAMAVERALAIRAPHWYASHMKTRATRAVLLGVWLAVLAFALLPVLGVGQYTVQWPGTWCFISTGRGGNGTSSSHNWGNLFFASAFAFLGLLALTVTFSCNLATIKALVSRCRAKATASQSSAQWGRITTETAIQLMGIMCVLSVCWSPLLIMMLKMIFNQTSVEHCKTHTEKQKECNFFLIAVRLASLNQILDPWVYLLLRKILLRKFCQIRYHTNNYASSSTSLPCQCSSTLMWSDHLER
Experimental: (§1) Using CHO cells (EP1-CHO, EP2-CHO, EP3-Chem1, EP4-CHO and IP-CHO) on which various human prostanoid receptors were forcibly expressed, the agonist activity of the test compound on the various prostanoid receptors was examined using the intracellular calcium concentration for EP1 and EP3, and the intracellular cyclic AMP (hereinafter, abbreviated as cAMP) production amount for EP2, EP4 and IP as indices.
The test compound and control substances (PGE2 and iloprost) were dissolved in dimethyl sulfoxide (DMSO) to prepare a 10 mmol/L solution. The prepared 10 mmol/L solution was thawed at the time of use, serially diluted using DMSO, and diluted with a buffer solution 1 for measurement (Hank's balanced salt solution (Thermofischer scientific) containing 1 w/v% human serum albumin (Sigma), 2 µmol/L indomethacin (Sigma), 2.5 mmol/L probenecid, and 10 mmol/L HEPES-NaOH (pH7.4)) or a buffer solution 2 for measurement (D-PBS (Nacalai Tesque) containing 0.1 w/v% human serum albumin, 2 µmol/L diclofenac (Sigma), and 1 mmol/L 3-isobutyl-1-methylxanthine (Sigma)) to perform experiments.

IP = target: T3, IP (Homo sapiens, UniProt P43119); experiment: agonist activity on human IP receptor (cAMP production, IP-CHO cells); assay type: cell-based
T3 construct: expressed in transfected cells; host or cells: CHO (IP-CHO)
Experimental: as §1
(§2) The test compound and control substances (PGE2 and iloprost) were dissolved in dimethyl sulfoxide (DMSO) to prepare a 10 mmol/L solution. […]
(§3) On the day of the measurement, EP2-CHO, EP4-CHO, and IP-CHO were obtained by thawing frozen cells. […] The cAMP concentration was measured using a cAMP HTRF HiRange kit (CIS bio International). […] After incubation for 1 hour, time-resolved fluorescence at 620 nm and 660 nm when excited at 340 nm was measured using Synergy Neo (Bioteck), and the ratio (TRF ratio) was determined to calculate the cAMP concentration from the calibration curve.

EP2 = target: T4, EP2 (Homo sapiens, UniProt P43116); experiment: agonist activity on human EP2 receptor (cAMP production, EP2-CHO cells); assay type: cell-based
T4 construct: expressed in transfected cells; host or cells: CHO (EP2-CHO)
Experimental: as §1, §2, §3

EP4 = target: T5, EP4 (Homo sapiens, UniProt P35408); experiment: agonist activity on human EP4 receptor (cAMP production, EP4-CHO cells); assay type: cell-based
T5 construct: expressed in transfected cells; host or cells: CHO (EP4-CHO)
Experimental: as §1, §2, §3

T4 sequence (P43116 whole entry): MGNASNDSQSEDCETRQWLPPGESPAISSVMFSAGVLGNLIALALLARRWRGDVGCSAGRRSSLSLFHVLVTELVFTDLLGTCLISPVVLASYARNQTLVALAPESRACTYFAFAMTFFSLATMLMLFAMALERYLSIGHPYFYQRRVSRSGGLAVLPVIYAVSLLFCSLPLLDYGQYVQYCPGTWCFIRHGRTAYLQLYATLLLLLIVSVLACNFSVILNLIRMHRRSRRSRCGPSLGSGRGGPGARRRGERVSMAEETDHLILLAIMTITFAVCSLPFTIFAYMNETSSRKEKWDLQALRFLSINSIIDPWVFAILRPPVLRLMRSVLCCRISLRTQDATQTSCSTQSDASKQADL
T3 sequence (P43119 whole entry): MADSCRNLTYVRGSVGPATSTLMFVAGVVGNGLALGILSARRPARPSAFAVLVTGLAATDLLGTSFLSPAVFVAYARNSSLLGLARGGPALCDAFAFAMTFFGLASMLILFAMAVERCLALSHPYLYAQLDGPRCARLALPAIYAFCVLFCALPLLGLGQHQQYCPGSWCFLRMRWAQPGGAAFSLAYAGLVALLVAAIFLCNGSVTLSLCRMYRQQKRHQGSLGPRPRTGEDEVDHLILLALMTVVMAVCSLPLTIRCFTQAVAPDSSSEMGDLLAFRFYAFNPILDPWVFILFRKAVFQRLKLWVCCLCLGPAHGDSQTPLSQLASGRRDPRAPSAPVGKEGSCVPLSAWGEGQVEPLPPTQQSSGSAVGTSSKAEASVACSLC
T5 sequence (P35408 whole entry): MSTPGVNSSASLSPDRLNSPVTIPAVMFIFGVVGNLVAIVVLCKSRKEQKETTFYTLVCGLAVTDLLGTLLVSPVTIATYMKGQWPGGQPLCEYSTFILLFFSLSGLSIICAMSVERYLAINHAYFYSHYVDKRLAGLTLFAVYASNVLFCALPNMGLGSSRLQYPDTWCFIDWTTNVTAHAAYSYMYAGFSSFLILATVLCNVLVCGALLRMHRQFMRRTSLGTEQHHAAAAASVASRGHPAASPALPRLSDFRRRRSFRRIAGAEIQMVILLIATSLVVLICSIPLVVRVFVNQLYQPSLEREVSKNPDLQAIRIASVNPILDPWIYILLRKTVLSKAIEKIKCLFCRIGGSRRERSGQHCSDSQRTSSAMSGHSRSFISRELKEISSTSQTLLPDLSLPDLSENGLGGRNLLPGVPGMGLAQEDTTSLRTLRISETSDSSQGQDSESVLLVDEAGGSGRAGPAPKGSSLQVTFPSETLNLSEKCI

Q: “(1R,2R,3aS,10aR)-1-{(1E,3ξ)-3-[1-(2,5-difluorophenyl)cyclobutyl]-3-hydroxy-1-propen-1-yl}-2-hydroxy-2,3,3a,9,10,10a-hexahydro-1H-benzo[b]cyclopenta[f]oxepine-6-carboxylic acid [Example 7-30]” was tested. Which EC50 (EP1) did it give?
A: > 10 µM

Q: What about the “blood urea nitrogen (BUN) concentration mean” value (“blood urea nitrogen” below) ([1]; IR 0.3 µg/kg/min, day 1) of the same substance?
A: 96.6

Q: And the “serum creatinine (sCre) concentration mean” value (shortened to “serum creatinine”) ([1]; IR 0.3 µg/kg/min, day 1)?
A: 1.78

Q: And the “blood urea nitrogen” value ([1]; IR 0.3 µg/kg/min, day 2)?
A: 94.3

Q: And the “serum creatinine” value ([1]; IR 0.3 µg/kg/min, day 2)?
A: 1.42

Q: And the “blood urea nitrogen” value ([1]; IR 0.3 µg/kg/min, day 3)?
A: 79.8

Q: And the “serum creatinine” value ([1]; IR 0.3 µg/kg/min, day 3)?
A: 1.00

Q: What about the “blood urea nitrogen” value ([1]; IR 3.0 µg/kg/min, day 1) of the same substance?
A: 89.5

Q: And the “serum creatinine” value ([1]; IR 3.0 µg/kg/min, day 1)?
A: 1.45

Q: And the “blood urea nitrogen” value ([1]; IR 3.0 µg/kg/min, day 2)?
A: 81.8

Q: And the “serum creatinine” value ([1]; IR 3.0 µg/kg/min, day 2)?
A: 1.10

Q: And the “blood urea nitrogen” value ([1]; IR 3.0 µg/kg/min, day 3)?
A: 70.7

Q: And the “serum creatinine” value ([1]; IR 3.0 µg/kg/min, day 3)?
A: 0.83

Q: And the EC50 (EP3 receptor)?
A: 40 nM

Q: And the EC50 (IP)?
A: > 10 µM

Q: What about the EC50 (EP2) of the same substance?
A: > 10 µM

Q: What about the EC50 (EP4) of the same substance?
A: 1500 nM
